Assay results as given in BigSolDB 2.1.

NC(=O)N/N=C/c1ccc([N+](=O)[O-])o1
solubility (mole fraction)
Conditions	in DMF	in acetone	in acetonitrile	in ethanol	in ethyl acetate	in formamide	in isopropanol	in methanol	in n-propanol	in water
278.15 K	0.0194	0.000291	7.32e-05	5.89e-05	7.69e-05	0.00131	2.66e-05	0.000137	3.6e-05	4.23e-06
283.15 K	0.0202	0.000339	9.44e-05	7.3e-05	8.31e-05	0.00154	3.27e-05	0.000168	4.98e-05	5.75e-06
288.15 K	0.0207	0.00038	0.000116	8.98e-05	9.59e-05	0.00178	4.03e-05	0.000198	5.29e-05	8.03e-06
293.15 K	0.0223	0.000435	0.000146	0.000112	0.000116	0.00205	5.09e-05	0.000238	6.62e-05	1.07e-05
298.15 K	0.023	0.000501	0.000168	0.000136	0.00013	0.0024	6.47e-05	0.000284	8.61e-05	1.27e-05
303.15 K	0.0255	0.00056	0.000204	0.000165	0.000151	0.00273	8.79e-05	0.000338	0.000108	1.53e-05
308.15 K	0.0265	0.000641	0.000246	0.000203	0.000172	0.00313	0.000116	0.000404	0.000139	2.05e-05
313.15 K	0.0279	0.000749	0.000293	0.000247	0.000202	0.00359	0.000151	0.000478	0.000164	2.68e-05
